Series [1] relates to oral epidermoid (KB) carcinoma cell line. Description: Cytotoxicity assay (sulforhodamine B), KB. It is filed as cell-based, human. Particulars: KB cells; for IC50: 72 hours, read-out: Cytotoxic activity IC50, KB.
Method: (§4) Pure compounds are evaluated against the human cancer cell lines comprising our cytotoxicity screening panel. Cytotoxicity assays involving oral epidermoid (KB), colon (HCT116), prostate (LNCaP), breast (MCF7), Hela (cervical), leukemia (HL-60) melanoma (A375) and lung (A549) carcinoma cell lines, are performed using sulforhodamine B according to established protocols (Zhang et al., Journal of Medicinal Chemistry 2006; 49: 693-708; and Jutiviboonsuk A et al., Phytochemistry 2005; 66: 2745-2751.). KB and A375 cells are maintained in DMEM (Dulbecco's modified Eagle medium) medium. LNCaP and HL60 cells are maintained in RPMI1640 medium with hormone-free 10% heat-activated FBS (fetal bovine serum) supplemented with 0.1 nM testosterone. MCF7 and Hela cells are maintained and assayed in MEME (Minimum Essential Medium Eagle) medium containing 10 mg/L of insulin. HCT116 cells are maintained in McCoy's 5A medium supplemented with 10% fetal bovine serum. A549 cells are maintained in RPMI-1640 medium supplemented with 10% FCS. Serial dilutions of the compounds are prepared using 10% aqueous DMSO as solvent. The 190 μL cell suspension (3×10^4 cells in 1 ml media) is incubated with 10 μL sample solutions, in triplicate, in 96-well tissue culture plate at 37° C. in a humidified atmosphere of 5% CO2 in air for 72 hours. 10 μL 10% aqueous DMSO is used as control group. Then the cells are fixed to plastic substratum by the addition of 100 μL cold 20% aqueous trichloroacetic acid and washing with water after incubation at 4° C. for 30 min. After staining cells with 100 μL of 0.4% sulforhodamine B in 1% aqueous AcOH for 30 min, unbound dye is removed by rinsing with 1% aqueous AcOH. The bound dye is solubilized with 200 μL 10 mM unbuffered Tris base, pH 10, and the optical density is measured at 515 nm using an ELISA plate reader. The average data are expressed as a percentage, relative to the control. The IC50 values, the dose that inhibit cell growth by 50%, are calculated using nonlinear regression analysis (percent survival versus concentration).
In series [2] the test system is prostate (LNCaP) carcinoma cell line. Description: cells. It is filed as cell-based, human. Particulars: 72 hours, read-out: Cytotoxic activity IC50, LNCaP.
Method: as §4
For series [3], the system named is lung (A549) carcinoma cell line. Description: cells. It is filed as cell-based, human. Particulars: for IC50: 72 hours, read-out: Cytotoxic activity IC50, A549; for IC90: read-out: Cytotoxic activity IC90, A549.
Method: as §4
The subject of series [4] is breast (MCF7) carcinoma cell line. Description: cells. It is filed as cell-based, human. Particulars: for IC50: 72 hours, read-out: Cytotoxic activity IC50, MCF7; for IC90: read-out: Cytotoxic activity IC90, MCF7.
Method: as §4
In series [5] the test system is murine P388 leukemia cells. Particulars: at a concentration of 10 ng/mL.
Series [6] in a line: Body weight of mice after drug treatment. Particulars: for Drop of average weight of mice after the first treatment: i.p. injection; for Drop of average weight of mice after six treatments: twice a week.
Series [7] has as its system colon (HCT116) carcinoma cell line. Description: Cytotoxicity assay (sulforhodamine B), HCT116. Particulars: for IC50: read-out: Cytotoxic activity IC50, HCT116.
Method: as §4
Series [8] deals with 3T3-L1 murine adipocytes. Description: 3T3-L1 fat accumulation (triglyceride) assay. The class given is cell-based. Particulars: differentiated 3T3-L1 adipocytes, 7 days, read-out: Anti-obesity activity (fat accumulation) EC50. How it is done:
(§1) MV-A, MV-B, MV-C and MV-D are evaluated for their anti-obesity effects in 3T3-L1 murine adipocytes. 3T3-L1 cells are cultured in the presence of insulin to induce adipocyte differentiation.
(§2) Pure compounds are evaluated against 3T3-L1 cell line for their potential anti-obesity activity. […] After the cells reach 100% confluence, the culture medium is changed to a differentiation DMEM medium containing 10% FCS, […], 0.5 mM 3-isobutyl-1-methylxanthine (IBMX), 90 U/mL penicillin, […] and 10 μg/mL insulin for induction of the adipocyte form of the 3T3-L1 cells. After 2 days, the differentiation medium is changed back to the normal DMEM medium and refreshed with the normal medium every 2 days. After incubation of additional 7 days, the cells are seeded in two sets of 96-well plates (about 10,000 cells per well). The test compounds in different concentrations are then added to the wells with 0.5% aqueous DMSO as control group. After incubation of 7 days, the differentiated 3T3-L1 adipocytes are treated with 2% Triton-X 100 ([…]) for 30 min at room temperature followed by sonication for 1 min. Fat accumulation is determined by measuring the liberated triglyceride using a Wato Triglyceride E-test Kit with the absorbance at 630/690 nm. The fat-accumulation rate is calculated as a percentage of the DMSO control. […] The cell viability of the differentiated 3T3-L1 adipocytes in another 96-well plate is treated with a Wako Cell Counting Kit-8 Test and measured with the absorbance at 450 nm. The cell viability is calculated as a percentage of the control.

The subject of series [9] is 3T3-L1 murine adipocytes. Description: 3T3-L1 adipocyte cell viability. Particulars: differentiated 3T3-L1 adipocytes. It is filed as cell-based. The protocol:
as §1, §2

The test system of series [10] is panel of cancer cell lines comprising KB, HCT116, LNCaP, A549, MCF7, HL60, Hela and A375. Particulars: at 2 μM.
In series [11] the test system is HIV (human immunodeficiency virus).
Another series relates to HCT116-tumor xenograft. Description: HCT116 xenograft mouse model. It is filed as in vivo. The protocol: The treatment started on the 6th day when the HCT116-tumor reached approximately 100 mm^3 (L×W×W). […] All mice died for the maytansine group after the initial two treatments at the dose of 0.1 mg/kg, indicating the highly toxicity of maytansine.

The subject of series [12] is lung cancer cell line (A549). Description: Hollow fiber in vivo test, A549. Also on record: species or system mouse. Particulars: 2.0 mg/kg. The protocol:
(§3) Hollow fiber tests are well known in the art for providing preliminary indications of therapeutic efficacy (Mi et al. J. Nat. Prod. 2002, 65: 842-850). In hollow fiber tests, human tumor cell lines currently employed in cell cultures are grown inside semipermeable hollow fibers to form heterogeneous solid tumor models. […] By evaluating the test compound's inhibition of tumor cell growth versus the toxic response in the host, a preliminary estimate of therapeutic efficacy is provided in a cost- and time effective manner.

For series [13], the system named is colon cancer cell line (HCT116). Description: Hollow fiber in vivo test, HCT116. Particulars: 2.0 mg/kg. More on the design: species or system mouse. How it is done:
as §3

For series [14], the system named is breast cancer cell line (MCF7). Description: Hollow fiber in vivo test, MCF7. More on the design: species or system mouse. Particulars: 2.0 mg/kg. How it is done:
as §3

Series [15] concerns melanoma cancer cell line (A375). Description: Hollow fiber in vivo test, A375. More on the design: species or system mouse. Particulars: 2.0 mg/kg. The protocol: as §3
Series [16] concerns cervical cancer cell line (Hela). Description: Hollow fiber in vivo test, Hela. Also on record: species or system mouse. Particulars: 2.0 mg/kg. The protocol: as §3
The next series deals with MCF7-tumor xenograft. Description: MCF7 xenograft mouse model. Particulars: 5 mg/kg, twice a week for 3 weeks. The protocol: The treatment started on the 12th day when the MCF7-tumor size reached approximately 100 mm^3 (L×W×H). Two doses of MV-A (1.0 and 2.0 mg/kg), paclitaxel (5 mg/kg), and vehicle were administered via i.p. (intraperitoneal), i.v. (intravenous), or oral respectively, to the tumor-bearing mice twice a week for 3 weeks ([…]).
Antitumor animal study. All animal studies were approved and performed according to Animal Care and Use Guidelines of the Animal Ethics Committee at Hong Kong Baptist University and performed following Animal Care and Use guidelines set by NIH (National Institute of Health, USA). BALB/c nude mice, SPF class, male or female, 5-6 weeks old, were purchased from Charles River Laboratories. Before the experiment, it is one week of acclimatization to SPF class laboratory conditions. MV-A is tested for its anticancer activity against HCT116 and MCF7 cancer cells using a number of nude mice (Balc/nu/nu, female) in comparison of paclitaxel and maytansine. HCT116 or MCF7 cancer cells are subcutaneously implanted with 5×10^6 cells in the rear flank of each mouse. Female mice receiving MCF-7 cells are implanted with an s.c. pellet of 17β-estradiol (0.72 mg/pellet) a few days prior to injection to induce tumors. […] The mice are divided into 5 groups for HCT116 cancer cells: one high dose (1.0 mg/kg: 10 mice) group of MV-A, one low dose (0.5 mg/kg: 10 mice) group of MV-A, one dose (5.0 mg/kg: 10 mice) of paclitaxel, one dose of maytansine (0.1 mg/kg) and one dose of vehicle (negative control: 10 mice). The mice are then divided into 4 groups for MCF7 cancer cells: one high dose (2.0 mg/kg: 10 mice) group of MV-A, one low dose (1.0 mg/kg: 10 mice) group of MV-A, one dose (5.0 mg/kg: 10 mice) of paclitaxel, and one dose of vehicle (negative control: 10 mice). Every other day administration via i.p. (intraperitoneal), i.v. (intravenous), or oral, respectively are scheduled for 21 days for the HCT116 groups. Twice a week injections administered via i.p. (intraperitoneal), i.v. (intravenous), or oral, respectively are scheduled for […] for the MCF7 groups. Weights of mice and tumor diameters are measured twice a week until the end of the experiment. The tumor size in mm^3 was calculated by the formula: tumor size=length×width×height (L×W×H).

Series [17] has as its system 3T3-L1 murine adipocytes. Particulars: literature (Shimokawa et al. 2006); cited from earlier work.

What is called IC50 is the concentration at which inhibition is half-maximal. The term IC90 denotes the concentration at which the effect reaches the 90% level. One may read the EC50 as the concentration that produces a half-maximal response.

Where two headings read alike, the source gives them in different places. *1 amine or outer side, *2 acyl side, *3 side chain or, on linkers, in order; H or OH if unused. Where a SMILES comes first, the peptide text is derived from it. [ ]: non-standard residue; d: D form. X3 = CC1C(C)C1C(N[*:1])C(=O)[*:2]; dGly(cPr) = N[C@@H](C(=O)O)C1CC1; Gly(cPr) = N[C@H](C(=O)O)C1CC1; NMeL = CN[CH](CC(C)C)C(=O)O; NMeA = CN[CH](C)C(=O)O; dNMeA = CN[C@H](C)C(=O)O

In the case of `CC(C)CC1NC(=O)C(C)N(C)C(=O)C(C)N(C)C(=O)C(C2C(C)C2C)NC(=O)C(CC(C)C)N(C)C(=O)C(C)N(C)C(=O)C(C2C(C)C2C)NC1=O` (stereo not shown) [Compound 1] (cyclo([X3][NMeA][NMeA]L[X3][NMeA][NMeL]); configuration not given here), the “Cytotoxic activity IC90, KB” value in [1] is 1.65 nM. Further, the half-maximal inhibitory concentration (IC50) in series [1] was determined as 0.05 nM; in series [2] it was 0.42 nM; in [3], 0.24 nM; in series [4], 0.26 nM; in [7] (HCT116 cells, 72 hours) it was 0.25 nM. The 90% effect concentration (IC90) in series [3] came out at 1.02 nM; in series [4], 1.47 nM; in [7] (read-out: Cytotoxic activity IC90, HCT116, HCT116 cells), 0.69 nM. For the same compound, the “Inhibition of cell growth of murine P388 leukemia cells” value in series [5] is listed as 100%. The “Mortality during the treatments” value in series [6] (1 mg/kg and 2 mg/kg) is given as “No mice die”. Moreover, the “Toxicity observed from dissection of the mice” value in [6] (1 mg/kg and 2 mg/kg) is recorded as “No sign of toxicity”. In addition, the “Drop of average weight of mice after the first treatment” value was determined as 1.5 g in [6] (1 mg/kg) and 2.2 g in series [6] (2 mg/kg). For the same compound, the “Drop of average weight of mice after six treatments” value in series [6] (1 mg/kg) amounted to 1.7 g; in [6] (2 mg/kg), 4.7 g.
In the case of `CC(C)CC1NC(=O)C(C)N(C)C(=O)C(C)N(C)C(=O)C(C2C(C)C2C)NC(=O)C(CC(C)CO)N(C)C(=O)C(C)N(C)C(=O)C(C2C(C)C2C)NC1=O` (stereo not shown) [Compound 2], in [1], the “Cytotoxic activity IC90, KB” value is 11.4 nM. The 50% inhibitory concentration (IC50) in series [1] came to 0.79 nM; in [3] it was 6.35 nM; in [4] it was 5.83 nM; in [7] (HCT116 cells, 72 hours) it was 2.62 nM. The 90% effect concentration (IC90) in series [3] turned out to be 6.84 nM; in [4], 9.21 nM. The “Inhibition of cell growth of murine P388 leukemia cells” value in series [5] is listed as 100%.
As to `CC(C)C[C@H]1NC(=O)[C@@H](C)N(C)C(=O)[C@H](C)N(C)C(=O)[C@H](C2CC2)NC(=O)[C@H](CC(C)C)N(C)C(=O)[C@H](C)N(C)C(=O)[C@@H](C2CC2)NC1=O` [MV-D] (cyclo([Gly(cPr)][NMeA][dNMeA][dL][dGly(cPr)][NMeA][NMeL])), the EC50 in the series with 3T3-L1 murine adipocytes [8] came to 13.3 nM. In addition, the half-inhibitory concentration (IC50) in the series with 3T3-L1 murine adipocytes [9] is over 5000 nM; in series [11] it was 1240 nM. Further, the “Inhibition activity against the cancer cells” value in series [10] is on record as “no inhibition activity”.
For the compound `COc1cc2cc(c1Cl)N(C)C(=O)C[C@H](OC(=O)[C@H](C)N(C)C(C)=O)[C@]1(C)O[C@H]1[C@H](C)[C@@H]1C[C@@](O)(NC(=O)O1)[C@H](OC)/C=C/C=C(\C)C2` [Maytansine, reference compound], the IC50 in series [1] (Homo sapiens) is 0.16 nM; in series [2] (Homo sapiens) it was 0.56 nM; in [3] (Homo sapiens) it was 3.18 nM; in [4] (Homo sapiens), 0.69 nM. For the same compound, the “Cytotoxic activity IC90, KB” value in series [1] is about 5 nM. Moreover, the IC90 is over 40 nM in series [3] (Homo sapiens) and over 20 nM in series [4] (Homo sapiens). Also, the “Mortality of tumor-bearing mice” value with HCT116-tumor xenograft (0.1 mg/kg, after the first two treatments) was “All mice died”.
As for `CC(=O)O[C@H]1C(=O)[C@@]2(C)[C@H]([C@H](OC(=O)c3ccccc3)[C@]3(O)C[C@H](OC(=O)[C@H](O)[C@@H](NC(=O)c4ccccc4)c4ccccc4)C(C)=C1C3(C)C)[C@]1(OC(C)=O)CO[C@@H]1C[C@@H]2O` [Paclitaxel, reference compound], the IC50 amounted to 3.38 nM in [1] (Homo sapiens); 15.9 nM in series [2] (Homo sapiens); 4.81 nM in [3] (Homo sapiens); 3.24 nM in [4] (Homo sapiens); 5.78 nM in series [7] (Homo sapiens, HCT-116, 72 h). The “Cytotoxic activity IC90, KB” value in series [1] is recorded as over 20 nM. The concentration for an effect of 90% (IC90) is over 20 nM in series [3] (Homo sapiens); over 30 nM in series [4] (Homo sapiens); over 20 nM in series [7] (Homo sapiens, HCT-116, read-out: Cytotoxic activity IC90, HCT116). Also, the “Inhibition (%)” value worked out at 39.8% in [12] (A549-IP); 0% in series [12] (A549-SC); 60.4% in series [13] (HCT116-IP); 0% in series [13] (HCT116-SC); 70.7% in [14] (MCF7-IP); 0% in series [14] (MCF7-SC). Also, the “Inhibition (%)” value in series [15] (A375-IP) stood at 38.1%; in [15] (A375-SC) it was 7.8%; in series [16] (Hela-IP), 69.5%; in [16] (Hela-SC) it was 11.1%. For the same compound, the “Inhibition of HCT116 tumor growth (excised tumor weights)” value in the series on HCT116-tumor xenograft (5 mg/kg, every other day for 21 days) was 37.6%. In addition, the “Inhibition of MCF7 tumor growth (excised tumor weights)” value in the series with MCF7-tumor xenograft worked out at 28.2%.
Take Ternatin: the “Inhibition of fat accumulation against 3T3-L1 murine adipocytes” value in the series with 3T3-L1 murine adipocytes [17] is “potent inhibitor of fat accumulation”.

The values above are taken from patent US9963485B2, “Cycloheptapeptide agents for treatment of cancer and obesity diseases” (Hong Kong Baptist University, priority 2012, dated 2018).
